Assay [1] deals with Stromelysin (Homo sapiens, UniProt P08254). Nature of the assay: MMP inhibition by particle concentration fluorescence technique (stromelysin). The following applies: pH 7.5; 15 min enzyme preincubation; substrate 1-3 h at room temperature; read-out: MMP Inhibition Constants, Stromelysin Ki. In kind it is biochemical. The text has this:
An inhibitor binds to MMP enzymes prevents the degradation of a substrate of stromelysin, gelatinase, or collagenase. The substrate is attached with a fluorescein and a biotin. The intact substrate then binds to an avidin-coated particle via the biotin moiety. Once the particle is washed and dried, a fluorescent signal is generated since the fluorescent group is attached to the particle. Without an inhibitor present, the substrate is degraded by MMP enzymes and the fluorescein group is removed, therefore, no fluorescent signal can be detected. […] Serial two-fold dilutions of each compound are prepared. A concentrated, activated enzyme solution is transferred into each plate of the testing compounds, and the mixture is incubated at room temperature for 15 minutes.

The target of assay [2] is Gelatinase. Briefly: MMP inhibition by particle concentration fluorescence technique (gelatinase). It counts as biochemical. The following applies: pH 7.5; 15 min enzyme preincubation; substrate 1-3 h at room temperature; read-out: MMP Inhibition Constants, Gelatinase Ki. How it is done:
Inhibitory activity is evaluated in one or more of the MMP enzymes (stromelysin, gelatinase, and collagenase) in vitro using a particle concentration fluorescence techniques. An inhibitor binds to MMP enzymes prevents the degradation of a substrate of stromelysin, gelatinase, or collagenase. The substrate is attached with a fluorescein and a biotin. The intact substrate then binds to an avidin-coated particle via the biotin moiety. Once the particle is washed and dried, a fluorescent signal is generated since the fluorescent group is attached to the particle. Without an inhibitor present, the substrate is degraded by MMP enzymes and the fluorescein group is removed, therefore, no fluorescent signal can be detected. Testing compounds are dissolved in DMSO to the desired concentration, then the solutions are diluted to 1:5 with MMP buffer (50 mM Tris-HCl, pH 7.5; 150 mM NaCl; 0.02% NAN3). Serial two-fold dilutions of each compound are prepared. A concentrated, activated enzyme solution is transferred into each plate of the testing compounds, and the mixture is incubated at room temperature for 15 minutes. Thawed MMP substrate is then added into all plates, and the plates are incubate in the dark for 1-3 hours at room temperature. At this point, the substrate mixture is reacted with 0.1% avidin-coated polystyrene particles.

Each structure is given as a SMILES string.

Chain of Stromelysin (P08254 100-477): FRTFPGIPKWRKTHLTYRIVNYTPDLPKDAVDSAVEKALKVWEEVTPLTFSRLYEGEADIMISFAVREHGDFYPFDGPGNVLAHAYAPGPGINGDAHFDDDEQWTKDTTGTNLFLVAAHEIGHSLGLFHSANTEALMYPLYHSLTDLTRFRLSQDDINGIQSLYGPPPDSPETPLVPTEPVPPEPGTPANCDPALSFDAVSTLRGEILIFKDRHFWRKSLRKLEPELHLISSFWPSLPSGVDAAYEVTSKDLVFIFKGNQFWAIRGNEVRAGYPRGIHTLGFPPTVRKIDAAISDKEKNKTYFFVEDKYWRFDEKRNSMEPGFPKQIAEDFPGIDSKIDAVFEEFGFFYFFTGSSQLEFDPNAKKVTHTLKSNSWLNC

`CC(C)C[C@@]1([C@@H](CCN2C(=O)c3cc4ccccc4cc3C2=O)C(=O)NO)CCN(CCc2ccccc2)C1=O` (relative stereo) [Example 6]: the Ki was found to be 0.491 µM in assay [1] and 0.082 µM in assay [2].

On to `CC(C)C[C@@]1([C@@H](CCN2C(=O)c3c(F)c(F)c(F)c(F)c3C2=O)C(=O)NO)CCN(CCc2ccccc2)C1=O` (relative stereo) [Example 7, N-Hydroxy-3-(2-methylpropyl)-2-oxo-1-(2-phenylethyl)-α-[2-(4,5,6,7-tetrafluoro-1,3-dihydro-1,3-dioxo-2H-isoindol-2-yl)ethyl]-3-pyrrolidineacetamide], for which the values for the inhibition constant (Ki) in assay [1] and in assay [2] were 1.27 µM and 1.42 µM, respectively.

In the case of `CC(C)C[C@@]1([C@@H](CCN2C(=O)c3cc(Cl)c(Cl)cc3C2=O)C(=O)NO)CCN(CCc2ccccc2)C1=O` (relative stereo) [Example 8, α-[2-(5,6-Dichloro-1,3-dihydro-1,3-dioxo-2H-isoindol-2-yl)ethyl]-N-hydroxy-3-(2-methylpropyl)-2-oxo-1-(2-phenylethyl)-3-pyrrolidineacetamide], the results for the inhibitory constant (Ki) in assay [1] and in assay [2] were 1.14 µM and 0.734 µM, respectively.

Regarding `CC(C)C[C@@]1([C@@H](CCN2C(=O)c3cccc([N+](=O)[O-])c3C2=O)C(=O)NO)CCN(CCc2ccccc2)C1=O` (relative stereo) [Example 10, N-Hydroxy-3-(2-methylpropyl)-α-[2-(4-nitro-1,3-dihydro-1,3-dioxo-2H-isoindol-2-yl)ethyl]-2-oxo-1-(2-phenylethyl)-3-pyrrolidineacetamide], the Ki in assay [1] worked out at 6.04 µM.

Take `CC(C)C[C@@]1([C@@H](CCN2C(=O)c3cccc(F)c3C2=O)C(=O)NO)CCN(CCc2ccccc2)C1=O` (relative stereo) [Example 12, α-[2-(4-Fluoro-1,3-dihydro-1,3-dioxo-2H-isoindol-2-yl)ethyl]-N-hydroxy-3-(2-methylpropyl)-2-oxo-1-(2-phenylethyl)-3-pyrrolidineacetamide]: the Ki in assay [1] was 0.12 µM; in assay [2], 0.312 µM.

For the compound `CC(C)C[C@@]1([C@@H](CCN2C(=O)c3c(F)ccc(F)c3C2=O)C(=O)NO)CCN(CCc2ccccc2)C1=O` (relative stereo) [Example 13, α-[2-(4,7-Difluoro-1,3-dihydro-1,3-dioxo-2H-isoindol-2-yl)ethyl]-N-hydroxy-3-(2-methylpropyl)-2-oxo-1-(2-phenylethyl)-3-pyrrolidineacetamide], the Ki in assay [1] was found to be 0.334 µM; in assay [2], 0.28 µM.

Take `CC(C)C[C@@]1([C@@H](CCSc2cccs2)C(=O)NO)CCN(CCc2ccccc2)C1=O` (relative stereo) [Example 17, N-Hydroxy-3-(2-methylpropyl)-2-oxo-1-(2-phenylethyl)-α-[2-(2-thienylthio)ethyl]-3-pyrrolidineacetamide]: the results for the Ki in assay [1] and in assay [2] were 2.22 µM and 4.09 µM, respectively.

For the compound `CC(C)C[C@@]1([C@@H](CCCSc2cccs2)C(=O)NO)CCN(CCc2ccccc2)C1=O` (relative stereo) [Example 18], the Ki amounted to 1.47 µM in assay [1] and 3.04 µM in assay [2].

For `CC(C)C[C@@]1([C@@H](CCN2C(=O)c3c(F)c(F)c(F)c(F)c3C2=O)C(=O)NO)CCN(Cc2ccccc2)C1=O` (relative stereo) [Example 24, N-Hydroxy-3-(2-methylpropyl)-2-oxo-1-(phenylmethyl)-α-[2-(4,5,6,7-tetrafluoro-1,3-dihydro-1,3-dioxo-2H-isoindol-2-yl)ethyl]-3-pyrrolidineacetamide], the Ki in assay [1] was 7 µM.

Regarding `CNC(=O)CN1CC[C@@](CC(C)C)([C@@H](CCN2C(=O)c3ccccc3C2=O)C(=O)NO)C1=O` (relative stereo) [Example 26, α^3-[2-(1,3-Dihydro-1,3-dioxo-2H-isoindol-2-yl)ethyl]-N^3-hydroxy-N^1-methyl-3-(2-methylpropyl)-2-oxo-1,3-pyrrolidinediacetamide], the Ki in assay [1] was 0.713 µM; in assay [2], 0.998 µM.

With `CNC(=O)CN1CC[C@@](CC(C)C)([C@@H](CCN2C(=O)c3c(F)c(F)c(F)c(F)c3C2=O)C(=O)NO)C1=O` (relative stereo) [Example 27, N^3 -Hydroxy-N^1-methyl-3-(2-methylpropyl)-2-oxo-α^3-[2-(4,5,6,7-tetrafluoro-1,3-dihydro-1,3-dioxo-2H-isoindol-2-yl)ethyl]-1,3-pyrrolidinediacetamide], the values for the Ki in assay [1] and in assay [2] were 11 µM and 16.5 µM, respectively.

Regarding `CC(C)C[C@@]1([C@@H](CCNS(=O)(=O)c2ccc(F)cc2)C(=O)NO)CCN(CCc2ccccc2)C1=O` (relative stereo) [Example 81, α-[2-[[(4-Fluorophenyl)sulfonyl]amino]ethyl]-N-hydroxy-3-(2-methylpropyl)-2-oxo-1-(2-phenylethyl)-3-pyrrolidineacetamide], the Ki in assay [2] is 1.4 µM.

As for `CC(C)C[C@@]1([C@@H](CCN2Cc3cc(F)c(F)cc3C2=O)C(=O)NO)CCN(CCc2ccccc2)C1=O` (relative stereo) [Example 85, 5,6-Difluoro-1,3-dihydro-N-hydroxy-α-[3-(2-methylpropyl)-2-oxo-1-(2-phenylethyl)-3-pyrrolidinyl]-1-oxo-2H-isoindole-2-butanamide], the Ki amounted to 0.116 µM in assay [1] and 0.031 µM in assay [2].

On to `CC(C)CC1(C(CSc2cccs2)C(=O)NO)CCN(CCc2ccccc2)C1=O` (stereo not drawn) [Example 19, N-Hydroxy-3-(2-methylpropyl)-2-oxo-1-(2-phenylethyl)-α-[2-(2-thienylthio)methyl]-3-pyrrolidineacetamide], for which the inhibitory constant (Ki) was 2.77 µM in assay [1] and 2.47 µM in assay [2].

`CC(C)CC1(CC(=O)NO)CC(=O)N(CCc2ccccc2)C1=O` (centres unmarked) [Example 35, N-Hydroxy-3-(2-methylpropyl)-2,5-dioxo-1-(2-phenylethyl)-3-pyrrolidineacetamide]: the Ki in assay [1] was determined as 3.12 µM.

`CC(C)CC1(CC(=O)NO)C(=O)N(CCc2ccccc2)C(=O)N1C` (centres unmarked) [Example 36, N-Hydroxy-3-methyl-4-(2-methylpropyl)-2,5-dioxo-1-(2-phenylethyl)-4-imidazolidineacetamide]: the results for the Ki in assay [1] and in assay [2] were 2.4 µM and 44 µM, respectively.

Regarding `CC(C)CC1(CC(=O)NO)NC(=O)N(CCc2ccccc2)C1=O` (centres unmarked) [Example 37, N-Hydroxy-4-(2-methylpropyl)-2,5-dioxo-1-(2-phenylethyl)-4-imidazolidineacetamide], the Ki in assay [1] turned out to be 4.74 µM.

Take `CNC(=O)[C@H](Cc1ccccc1)N1CC[C@@](CC(C)C)([C@H](CCN2C(=O)c3ccccc3C2=O)C(=O)NO)C1=O` [Example 58, [3S-[1(R*),3R*(R*)]]-α^3-[2-(1,3-Dihydro-1,3-dioxo-2H-isoindol-2-yl)ethyl]-N^3-hydroxy-N^1-methyl-3-(2-methylpropyl)-2-oxo-α^1-(phenylmethyl)-1,3-pyrrolidinediacetamide]: the inhibitory constant (Ki) in assay [1] amounted to 0.023 µM; in assay [2], 0.0029 µM.

With `CC(C)C[C@@]1([C@@H](CCNS(=O)(=O)c2ccc(F)cc2)C(=O)NO)CCN(CCc2ccccc2)C1=O` [Example 84, [R-(R*,S*)]-α-[2-[[(4-Fluorophenyl)sulfonyl]amino]ethyl]-N-hydroxy-3-(2-methylpropyl)-2-oxo-1-(2-phenylethyl)-3-pyrrolidineacetamide], the Ki in assay [2] is 3 µM.

(Values after patent publication US5712300A, “Hydroxamic acid derivatives useful for the treatment of diseases related to connective tissue degradation” (priority 1997, dated 1998).)
